Earlier results, collected in US20200172966A1 (YAMAGUCHI UNIVERSITY, priority 2015, published 2020).

Settings: patients identified as non-high-risk based on polymorphisms of the UGT1A gene; cited from earlier work

CCc1c2c(nc3ccc(OC(=O)N4CCC(N5CCCCC5)CC4)cc13)-c1cc3c(c(=O)n1C2)COC(=O)[C@]3(O)CC [irinotecan, 1,4′-Bipiperidine-1′-carboxylic acid (S)-4,11-diethyl-3,4,12,14-tetrahydro-4-hydroxy-3,14-dioxo-1H-pyrano[3′,4′:6,7]indolizino[1,2-b]quinolin-9-yl ester]
patients with a side effect: 43%
